{"source": "patent US20120164104A1", "about": "“Composition and Methods of Treating Viral Infections and Viral Induced Tumors” (Chimerix, Inc., priority 2009, published 2012)", "key": {"JC virus": {"system": "JC virus", "assay": "Antiviral activity against JC virus in COS-7 cells (qPCR, 5 days)", "type": "cell-based, JCV(Mad-4)", "description": "In order to test the ability of CMX001 to inhibit JC virus, COS-7 cells were infected with JCV(Mad-4) at an estimated TCID50 of 0.2. After 2 h incubation at 37° C., supernatants were replaced with fresh medium without or with increasing amounts of CMX001 and incubated for 5 days. JC virus was quantified by qPCR after DNA extraction."}, "RPTECs": {"system": "RPTECs", "assay": "Inspection of RPTECs by phase contrast microscopy", "type": "cell-based, human", "conditions": "3 day exposure to CMX001 0.31 μM"}, "BKV(Dunlop)": {"system": "BKV(Dunlop)", "assay": "Intracellular BKV load per cell in RPTECs (qPCR)", "type": "cell-based", "conditions": "CMX001 0.31 μM", "description": "FIG. 3 illustrates the influence of CMX001 0.31 μM on BKV genome replication. For Figure, CMX001-treated and untreated BKV-infected RPTECs were harvested at indicated timepoints and intracellular BKV DNA load per cell was measured by qPCR.\nTo investigate whether the BKV genome replication was affected by CMX001, intracellular BKV load at 24-72 h p.i. by qPCR was measured. The intracellular BKV load was normalized to the cell number using the aspartoacylase (ACY) gene as described (See Bernhoff et al., 2008; Randhawa, et al., Quantitation of DNA of polyomaviruses BK and JC in human kidneys. J Infect Dis., 192, 504-509 (2005)). Compared to untreated RPTECs, CMX001 0.31 μM reduced the intracellular BKV load by 94% at 48 h and 63% at 72 h p.i. (FIG. 3). Then, a significant inhibitory effect of CMX001 on intracellular BKV genome replication, which is the second step of the BKV lifecycle may be identified. This step is known to require LTag expression which also increases viral late gene expression by two mechanisms: 1. increasing the DNA templates for late gene transcription and 2. by activating transcription from the late promoter (Cole, C. N., Polyomavirinae: The Viruses and Their Replication. In Fields Virology, Third edn, pp. 1997-2043. Edited by B. N. Fields, D. M. Knipe & P. H. Howley. New York: Lippincott-Raven (1996).)"}, "JCV Mad-4 [1]": {"system": "JCV Mad-4", "assay": "Extracellular JCV load in JCV-infected COS-7 cells (qPCR)", "type": "cell-based", "description": "COS-7 supernatants were harvested 5 […] post start of treatment with indicated CMX001 concentrations. JCV load was measured by qPCR and input virus subtracted. DNA load in untreated cells (5.04×10 E+9 geq/ml) was set as 100%. Replication of JCV is shown as percentage of untreated cells to determine the IC-50 and IC-90. […] Supernatants from CMX001-treated and untreated JCV-infected COS-7 cells were harvested at indicated timepoints after infection and JCV load measured by qPCR. Data are presented as JCV load in log geq/ml. COS-7 or astrocyte cells were infected at a confluence of 60-70% with JCV(Mad-4) at an estimated TCID50 of 0.2. After 2 h incubation at 37° C., supernatants were replaced with fresh medium without or with increasing concentration CMX001. […] JCV loads were quantified after DNA extraction from 100 ul cell culture supernatants and the Corbett X-tractor Gene and the Corbett VX reagents (Qiagen, Hombrechtikon, Switzerland). The real-time PCR protocol for detection of JCV DNA samples targets the JCV large T coding sequence and has been described elsewhere (5). To investigate the effect of CMX001 on JCV progeny, increasing concentrations of CMX001 were added at 2 h p.i. and supernatants harvested at 5 d.p.i. It was observed that CMX001 reduced the extracellular JCV load in a concentration dependent manner (FIG. 12)."}, "COS-7": {"system": "COS-7", "assay": "Inspection of COS-7 by phase contrast microscopy", "type": "cell-based", "conditions": "7 day exposure to CMX001 0.6 μM"}, "JCV Mad-4 [2]": {"system": "JCV Mad-4", "assay": "Extracellular JCV load in JCV-infected astrocyte cells (qPCR)", "type": "cell-based", "conditions": "in the presence of CMX001", "description": "FIG. 17 illustrates the effect of increasing concentrations of CMX001 on extracellular viral load in astrocytes. Supernatants from JCV-infected PDA cells treated with indicated concentrations of CMX001 were harvested at indicated timepoints after infection and JCV load measured by qPCR. Data are presented as JCV load in log geq/ml. COS-7 or astrocyte cells were infected at a confluence of 60-70% with JCV(Mad-4) at an estimated TCID50 of 0.2. After 2 h incubation at 37° C., supernatants were replaced with fresh medium without or with increasing concentration CMX001. […] JCV loads were quantified after DNA extraction from 100 ul cell culture supernatants and the Corbett X-tractor Gene and the Corbett VX reagents (Qiagen, Hombrechtikon, Switzerland). The real-time PCR protocol for detection of JCV DNA samples targets the JCV large T coding sequence and has been described elsewhere (5). To examine the effect of CMX001 on JCV progeny levels over time, supernatants of treated and untreated cells were harvested at the indicated timepoints. To determine input virus samples were taken at 1 d.p.i. In the course of the infection for untreated cells, the extracellular JCV load changes approximately 1 log over the period of 7 days (3.22×107 vs 2.30×108 geq/ml)."}, "[3]": {"conditions": "JC polyomavirus, 120 h, JCV(Mad-4), 5 days"}}, "data": [{"smiles": "CCCCCCCCCCCCCCCCOCCCOP(=O)(O)CO[C@H](CO)Cn1ccc(N)nc1=O", "note": "[CMX001]", "values": [{"measurement": "EC50", "setting": "JC virus; [3]", "value": 150, "unit": "nM"}, {"measurement": "EC90", "setting": "JC virus; [3]", "value": 600, "unit": "nM"}, {"measurement": "activity against JC virus", "setting": "JC virus; in words", "value": "active"}, {"measurement": "signs of impaired viability", "setting": "RPTECs", "value": "did not reveal any signs of impaired viability"}, {"measurement": "reduction of intracellular BKV load", "setting": "BKV(Dunlop); 48 h p.i.", "value": 94, "unit": "%"}, {"measurement": "reduction of intracellular BKV load", "setting": "BKV(Dunlop); 72 h p.i.", "value": 63, "unit": "%"}, {"measurement": "change in the JCV load over 7 days", "setting": "JCV Mad-4 [1]; 5 nM CMX001, COS-7", "value": "less than 1 log"}, {"measurement": "IC50", "setting": "JCV Mad-4 [1]; 120 h, COS-7, day 5 p.i., viral input subtracted, read-out: inhibitory concentration IC-50 (extracellular JCV load)", "value": 150, "unit": "nM"}, {"measurement": "IC90", "setting": "JCV Mad-4 [1]; 120 h, COS-7, day 5 p.i., viral input subtracted, read-out: inhibitory concentration IC-90 (extracellular JCV load)", "value": 600, "unit": "nM"}, {"measurement": "reduction of JCV viral load", "setting": "JCV Mad-4 [1]; CMX001 0.15 μM, day 5 p.i.", "value": "> 50", "unit": "%"}, {"measurement": "IC-90 concentration lower than concentrations reported for CDV inhibition of JCV", "setting": "JCV Mad-4 [1]; CMX001 0.6 μM, COS-7", "value": "2 orders of magnitude"}, {"measurement": "viral load at 7 d.p.i. relative to untreated cells at 3 d.p.i.", "setting": "JCV Mad-4 [1]; CMX001 5 uM, COS-7", "value": 91, "unit": "%"}, {"measurement": "signs of impaired viability", "setting": "COS-7", "value": "did not reveal any signs of impaired viability"}, {"measurement": "change in JCV load over 7 days", "setting": "JCV Mad-4 [2]", "value": "less than 1 log"}]}]}
